Results taken from PubChem BioAssay AID2060488 (Molecular Pharmacology Branch, DTP, NCI, 2025).

Tested on: 966289-007-R4-J1-PDC complex spheroid viability
Assay: Anticancer human tumor 966289-007-R4-J1-PDC patient-derived pancreatic adenocarcinoma cell line growth inhibition [GQUAD]
Details: for IC50: curve of first compound; for viability, T/C: stronger effect = lower value
Text: DNA G-quadruplex Stabilizer Agents in Combinations in Complex Spheroids
A high-throughput screen of multi-cell type tumor spheroids was designed to identify active combinations of DNA G-quadruplex stabilizer agents and targeted small molecules. Complex spheroids include a stromal component modeled by human endothelial cells (HUVEC) and fibroblasts modeled by human mesenchymal stem cells (MSCs). The concentration ranges selected for each drug and investigational agent were based upon clinically achievable concentrations if the clinical Cmax of the agent was known.
Compounds. The drugs and investigational agents: pidnarulex (CX-5461; NSC782164), APTO-253 (NSC789042), BRACO-19 (NSC847499), peposertib (NSC802822), ceralasertib (NSC780249), elimusertib (NSC800525), camonsertib (NSC841442), AZD-1390 (NSC803789), olaparib (NSC753686), talazoparib (NSC767125), ART-558 (NSC835418), sotorasib (NSC818433), MRTX-1133 (NSC836407), SN-38 (NSC673596), topotecan (NSC609699), etoposide (NSC141540), doxorubicin (NSC123127), gemcitabine (NSC613327), 5-fluorouracil (NSC19893), paclitaxel (NSC125973), vemurafenib (NSC761431), panobinostat (NSC761190), R-306465 (JNJ-16241199; NSC773264), adavosertib (NSC754352), TP-3654 (NSC805149), carboplatin (NSC241240), KSQ-4279 (NSC840948), and staurosporine (NSC755774) were obtained from the National Cancer Institute (NCI) Developmental Therapeutics Program Chemical Repository (34). The FDA-approved anticancer drug set is available from the NCI Developmental Therapeutics Program. […] The stock solutions were prepared in dimethyl sulfoxide (DMSO, Sigma-Aldrich, St. Louis, MO, cat. D2650) at 800-fold the tested concentration and stored at -70 degrees C prior to their use. All drugs and investigational agents were tested over a range starting from a high concentration at or near the clinical Cmax and decreasing in half-log increments. If the clinical Cmax for an agent had not been determined, the highest concentration tested was 10 microM.
2.3 Cell Culture. All cells were maintained in an incubator at 37 degrees C and 5% CO2 with 95% humidity. The PDC lines were cultured according to standard operating procedures established by the NCI PDMR. All PDCs were thawed and cultured in Matrigel-coated flasks prepared with a working solution of 1X Ham's F-12 nutrient mix, without supplementation (Invitrogen, cat. 11765054), 100 U/mL penicillin-streptomycin (Invitrogen, cat. 15140122), and 2.5% Matrigel (Corning Inc., cat. 354248) for the first three passages. The 857933-349-R-J2-PDC line was cultured in 6C/Colon 1B media, which includes advanced DMEM/F-12 (Thermo Fisher Scientific, cat. 12634028), 10 mM HEPES (Thermo Fisher Scientific, cat. 15630080), 1X GlutaMAX supplement (Thermo Fisher Scientific, cat. 35050061), 0.1 mg/mL primocin (InvivoGen, cat. ant-pm-2), 10% defined fetal bovine serum, heat inactivated (HyClone Laboratories Inc., cat. SH30070.03HI), 50% L-WRN conditioned media (ATCC, cat. CRL-3276), 1.25 mM N-Acetyl-L-cysteine (Sigma-Aldrich, cat. A9165), 10 mM nicotinamide (Sigma-Aldrich, cat. N0636), 1X B-27 supplement (Thermo Fisher Scientific, cat. 17504044), 1X N-2 supplement (Thermo Fisher Scientific, cat. 17502048), 10 microM Y-27632 dihydrochloride (Tocris Bioscience, cat. 1254), and 50 ng/mL human EGF recombinant protein (Thermo Fisher Scientific, cat. PHG0311). The 485176-168-R4-J1-PDC line was cultured in Panc media, which includes all 6C/Colon 1B media components plus 100 ng/mL human FGF-10 (Thermo Fisher Scientific, cat. 100-26), 500 nM SB-431542 (Selleckchem, cat. S1067), and gastrin (Tocris, cat. 3006).
[…]

[1] = second compound 0.0316 µM, first compound 0.0316 µM
[2] = second compound 0.0316 µM, first compound 0.1 µM
[3] = second compound 0.0316 µM, first compound 0.316 µM
[4] = second compound 0.0316 µM, first compound 1 µM
[5] = second compound 0.0316 µM, first compound 3.16 µM
[6] = second compound 0.0316 µM, first compound 10 µM
[7] = second compound 0.1 µM, first compound 0.0316 µM
[8] = second compound 0.1 µM, first compound 0.1 µM
[9] = second compound 0.1 µM, first compound 0.316 µM
[10] = second compound 0.1 µM, first compound 1 µM
[11] = second compound 0.1 µM, first compound 3.16 µM
[12] = second compound 0.1 µM, first compound 10 µM
[13] = second compound 0.316 µM, first compound 0.0316 µM
[14] = second compound 0.316 µM, first compound 0.1 µM
[15] = second compound 0.316 µM, first compound 0.316 µM
[16] = second compound 0.316 µM, first compound 1 µM
[17] = second compound 0.316 µM, first compound 3.16 µM
[18] = second compound 0.316 µM, first compound 10 µM
[19] = second compound 1 µM, first compound 0.0316 µM
[20] = second compound 1 µM, first compound 0.1 µM
[21] = second compound 1 µM, first compound 0.316 µM
[22] = second compound 1 µM, first compound 1 µM
[23] = second compound 1 µM, first compound 3.16 µM
[24] = second compound 1 µM, first compound 10 µM
[25] = second compound 3.16 µM, first compound 0.0316 µM
[26] = second compound 3.16 µM, first compound 0.1 µM
[27] = second compound 3.16 µM, first compound 0.316 µM
[28] = second compound 3.16 µM, first compound 1 µM
[29] = second compound 3.16 µM, first compound 3.16 µM
[30] = second compound 3.16 µM, first compound 10 µM
[31] = second compound 10 µM, first compound 0.0316 µM
[32] = second compound 10 µM, first compound 0.1 µM
[33] = second compound 10 µM, first compound 0.316 µM
[34] = second compound 10 µM, first compound 1 µM
[35] = second compound 10 µM, first compound 3.16 µM
[36] = second compound 10 µM, first compound 10 µM
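Further: spheroids exposed to the agents for seven days before readout.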
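Wherever viability, T/C is given: percent viability relative to DMSO vehicle control wells taken as 100%.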

CC1COCCN1c1cc(C2(S(C)(=N)=O)CC2)nc(-c2ccnc3[nH]ccc23)n1 (stereo unspecified) + CN(C)c1ccc(Nc2c3ccc(NC(=O)CCN4CCCC4)cc3nc3cc(NC(=O)CCN4CCCC4)ccc23)cc1
IC50 (second compound 0.0316 µM): 4.69 µM | IC50 (second compound 0.1 µM): 4.36 µM | IC50 (second compound 0.316 µM): 4.25 µM | IC50 (second compound 1 µM): 4.42 µM | IC50 (second compound 3.16 µM): 3.93 µM | IC50 (second compound 10 µM): 2 µM | viability, T/C [1]: 106% | viability, T/C [2]: 102% | viability, T/C [3]: 102% | viability, T/C [4]: 101% | viability, T/C [5]: 69.8% | viability, T/C [6]: 12.3% | viability, T/C [7]: 100% | viability, T/C [8]: 101% | viability, T/C [9]: 102% | viability, T/C [10]: 105% | viability, T/C [11]: 64.7% | viability, T/C [12]: 12.1% | viability, T/C [13]: 99.8% | viability, T/C [14]: 102% | viability, T/C [15]: 104% | viability, T/C [16]: 99.8% | viability, T/C [17]: 62.6% | viability, T/C [18]: 12.8% | viability, T/C [19]: 89.5% | viability, T/C [20]: 97% | viability, T/C [21]: 104% | viability, T/C [22]: 103% | viability, T/C [23]: 65.5% | viability, T/C [24]: 12.3% | viability, T/C [25]: 99.8% | viability, T/C [26]: 100% | viability, T/C [27]: 106% | viability, T/C [28]: 104% | viability, T/C [29]: 58.8% | viability, T/C [30]: 12.4% | viability, T/C [31]: 104% | viability, T/C [32]: 101% | viability, T/C [33]: 101% | viability, T/C [34]: 94% | viability, T/C [35]: 20.9% | viability, T/C [36]: 4.7%

Cc1cccc(N(C)C(=O)C2C(O)CCN2c2nc(C)cc(C(F)(F)F)c2C#N)c1 (stereo unspecified) + CN(C)c1ccc(Nc2c3ccc(NC(=O)CCN4CCCC4)cc3nc3cc(NC(=O)CCN4CCCC4)ccc23)cc1
IC50 (second compound 0.0316 µM): > 10 µM | IC50 (second compound 0.1 µM): > 10 µM | IC50 (second compound 0.316 µM): > 10 µM | IC50 (second compound 1 µM): > 10 µM | IC50 (second compound 3.16 µM): > 10 µM | IC50 (second compound 10 µM): 1.72 µM | viability, T/C [1]: 107% | viability, T/C [2]: 94.7% | viability, T/C [3]: 106% | viability, T/C [4]: 95.8% | viability, T/C [5]: 101% | viability, T/C [6]: 99.3% | viability, T/C [7]: 107% | viability, T/C [8]: 98.5% | viability, T/C [9]: 103% | viability, T/C [10]: 99.7% | viability, T/C [11]: 102% | viability, T/C [12]: 107% | viability, T/C [13]: 95.8% | viability, T/C [14]: 100% | viability, T/C [15]: 105% | viability, T/C [16]: 101% | viability, T/C [17]: 102% | viability, T/C [18]: 100% | viability, T/C [19]: 102% | viability, T/C [20]: 105% | viability, T/C [21]: 107% | viability, T/C [22]: 101% | viability, T/C [23]: 99.6% | viability, T/C [24]: 109% | viability, T/C [25]: 104% | viability, T/C [26]: 106% | viability, T/C [27]: 101% | viability, T/C [28]: 97.3% | viability, T/C [29]: 102% | viability, T/C [30]: 104% | viability, T/C [31]: 105% | viability, T/C [32]: 103% | viability, T/C [33]: 96.1% | viability, T/C [34]: 72.2% | viability, T/C [35]: 25.2% | viability, T/C [36]: 7.13%

O=C(c1cc(Cc2n[nH]c(=O)c3ccccc23)ccc1F)N1CCN(C(=O)C2CC2)CC1 + CN(C)c1ccc(Nc2c3ccc(NC(=O)CCN4CCCC4)cc3nc3cc(NC(=O)CCN4CCCC4)ccc23)cc1
IC50 (second compound 0.0316 µM): 4.87 µM | IC50 (second compound 0.1 µM): 5.02 µM | IC50 (second compound 0.316 µM): 4.91 µM | IC50 (second compound 1 µM): 5.07 µM | IC50 (second compound 3.16 µM): 3.74 µM | IC50 (second compound 10 µM): 1.93 µM | viability, T/C [1]: 106% | viability, T/C [2]: 104% | viability, T/C [3]: 110% | viability, T/C [4]: 105% | viability, T/C [5]: 74.2% | viability, T/C [6]: 9.57% | viability, T/C [7]: 104% | viability, T/C [8]: 97.9% | viability, T/C [9]: 107% | viability, T/C [10]: 109% | viability, T/C [11]: 76.7% | viability, T/C [12]: 10.2% | viability, T/C [13]: 100% | viability, T/C [14]: 103% | viability, T/C [15]: 101% | viability, T/C [16]: 108% | viability, T/C [17]: 75.1% | viability, T/C [18]: 9.35% | viability, T/C [19]: 99.7% | viability, T/C [20]: 99.3% | viability, T/C [21]: 104% | viability, T/C [22]: 109% | viability, T/C [23]: 79% | viability, T/C [24]: 8.19% | viability, T/C [25]: 105% | viability, T/C [26]: 104% | viability, T/C [27]: 101% | viability, T/C [28]: 107% | viability, T/C [29]: 57.4% | viability, T/C [30]: 6.49% | viability, T/C [31]: 102% | viability, T/C [32]: 103% | viability, T/C [33]: 104% | viability, T/C [34]: 95.7% | viability, T/C [35]: 15.6% | viability, T/C [36]: 3.36%
